The conditions of data set [1]: cited from earlier work.
The nature of data set [2]: particle size, Horiba LA 910 particle size analyzer. Particulars: unmilled drug crystals, before incorporation into nanoparticulate formulation.

For `Cc1cc2c(s1)Nc1ccccc1N=C2N1CCN(C)CC1` [Olanzapine, 2-methyl-4-(4-methyl-1-piperazinyl) -10H-thieno[2,3-b][1,5]benzodiazepine], the solubility in water entry in data set [1] was “practically insoluble in water”. The mean particle size in data set [2] came to 137.08 microns.
